Test results from US20240398759A1, “INHIBITING SEROTONIN TRANSPORTER PROTEIN (5-HTT)” (priority 2022, published 2024).
Read-outs that look alike come from different tables or passages of the source.

Tests used:
PDE4D2 = PDE4D2 (Homo sapiens (Human), UniProt Q08499); assay: PDE4 inhibition assay (fluorescence polarization), PDE4D2; assay type: biochemical
Procedure: (§1) 100 μM dilutions of the test compounds were prepared in assay buffer (10% DMSO concentration) and 5 μl of the dilution was added to a 50 μl reaction so that the final concentration of DMSO is 1% in all of reactions. The enzymatic reactions were conducted at room temperature for 60 minutes in a 50 μl mixture containing PDE assay buffer, 100 nM FAM-cAMP, a PDE enzyme (Table 2.3.1) and the test compound (Section 2.2). After the enzymatic reaction, 100 μl of a binding solution (1:100 dilution of the binding agent with the binding agent diluent) was added to each reaction and the reaction was performed at room temperature for 60 minutes. Fluorescence intensity was measured at an excitation of 485 nm and an emission of 528 nm using a Tecan Infinite M1000 microplate reader.
(§2) • 1) Dilute 20 μM FAM-Cyclic-3′, 5′-AMP stock 100-fold with PDE buffer to make a 200 nM solution. • 2) Add 25 μl of FAM-Cyclic-3′,5′-AMP (200 nM) to each well designated “Positive Control”, “Test Inhibitor”, and “Substrate Control”. • 3) Add 20 μl of PDE assay buffer to each well designated “Substrate Control” and 45 μl of PDE assay buffer to each well designated “Blank”. • 4) Add 5 μl of inhibitor solution to each well designated “Test Inhibitor”. For the wells labeled “Positive Control”, “Substrate Control” and “Blank”, add 5 μl of the same solution without inhibitor (inhibitor buffer). • 5) Thaw PDE on ice. Upon first thaw, briefly spin tube containing enzyme to recover the full contents of the tube. • 6) Dilute PDE4 in PDE buffer to 7.5 pg/μl (0.15 ng/reaction)*. Initiate reaction by adding 20 µl of PDE4 (7.5 pg/μl) to the wells designated “Positive Control” and “Test Inhibitor.” • 7) Incubate at room temperature for 1 hour.
(§3) • 1) Mix binding agent thoroughly and dilute binding agent 1:100 with binding agent diluent. • 2) Add 100 μl diluted binding agent to each microwell. Incubate at room temperature for 1 hour with slow shaking. • 3) Read the fluorescent polarization of the sample in a microtiter-plate reader equipped for the measurement of fluorescence polarization, capable of excitation at wavelengths ranging from 485±5 nm and detection of emitted light ranging from 528±10 nm. Blank value is subtracted from all other values. • 4) Data Analysis: PDE activity assays were performed in duplicate at each concentration. Fluorescence intensity is converted to fluorescence polarization using the Tecan Magellan6 software. The fluorescence polarization data were analyzed using the computer software, Graphpad Prism. The fluorescence polarization (FPt) in absence of the compound in each data set was defined as 100% activity. In the absence of PDE and the compound, the value of fluorescent polarization (FPb) in each data set was defined as 0% activity. The percent activity in the presence of the compound was calculated according to the following equation: % activity=(FP−FPb)/(FPt−FPb)×100%, where FP=the fluorescence polarization in the presence of the compound. The values of % activity versus a series of compound concentrations were then plotted using non-linear regression analysis of sigmoidal dose-response curve generated with the equation Y=B+(T−B)/1+10^(LogEC50−X)×Hill Slope), where Y=percent activity, B=minimum percent activity, T=maximum percent activity, X=logarithm of compound and Hill Slope=slope factor or Hill coefficient. The IC50 value was determined by the concentration causing a half-maximal percent activity.

PDE4A1A = PDE4A1A (Homo sapiens (Human), UniProt P27815); assay: PDE4 inhibition assay (fluorescence polarization), PDE4A1A; assay type: biochemical
Procedure: as §1, §2, §3

mouse behavior = assay: SmartCube system behavioral signature in mice; assay type: in vivo
Text: To confirm that compound 018 and Compound 019 has antidepressant effects, the SmartCube® system (Psychogenics, Inc., Paramus, NJ) was used. This system uses features derived from mouse behavioral data to classify compounds for their ability to treat neuro-psychiatric symptoms by comparing the features to a proprietary reference database of behavioral feature sets that are linked to classes of marketed drugs known to treat neuro-psychiatric symptoms. Thus the system can be used as a model to identify the psychiatric effect of a compound by comparing the effects of the compounds against drugs with known validated effects. By comparing the responses of animals to known drugs, the test drug can be categorized according to its function; for example, hallucinogen, anxiogenic, analgesic, cognitive enhancer, psychostimulant, mood stabilizer, high dose anti-psychotic, anti-psychotic, sedative/hypnotic, anxiolytic, high dose antidepressant, antidepressant.
Once all features are extracted from the raw data through an automated pipeline, proprietary bioinformatics algorithms are used to decorrelate groups of features and find the combination of values that best separate different groups of interest. For each compound, at each dose, they system provides a probability that the drug is active and breaks down such putative activity into the different classes of interest.
Mice were tested in the SmartCube® system where they were exposed to a sequence of challenges during the 45-minute test period. The cubes were cleaned between each run.
For class and subclass analysis, a reference data set has been built from hundreds of drug doses in multiple drug classes plus a control group. Each reference drug was tested at multiple doses appropriate for that drug in mice. The best performing classifiers were chosen from our evaluation tests and two separate types of classifiers were built that make independent predictions at drug class and subclass levels. The Class consists of drugs that are currently in the market or have been clinically validated for that specific indication. The sub-class consists of both marketed drugs and other compounds that have been mechanistically validated and is a larger set than the Class.
Data was processed using proprietary computer vision and data mining algorithms and the results were compared to signatures of the reference compounds in our database. Multiple analyses of the data was performed to quantitatively produce independent predictions of drug class, and drug subclass. The behavioral signatures of the test drug were evaluated using these classifiers to predict potential therapeutic utility.

SERT = SERT (Homo sapiens (Human), UniProt P31645); assay: SERT inhibition assay (Neurotransmitter Transporter fluorescence uptake, stable 5HTT HEK293 cells); assay type: cell-based; conditions: n=6 ± SD
Procedure: SERT inhibition was measured using a Neruotransmitter Transportation Fluorescence assay. Briefly, stable 5HTT HEK293 cells were prepared in a 384 microwell plate (20,000 cells per 20 μL well). Compounds were prepared by in assay buffer (20 mM HEPES in HBSS, 0.1% BSA) at a top concentration of 1 μM. 10 doses of test compound (3-fold serial dilution) were added to the plated cells and incubated for 30 minutes at 37° C. 25 μL of dye solution (Molecular Devices Neurotransmitter Transporter Uptake Assay Kit) was added per well and incubated for 30 minutes at 37° C.

in vitro = conditions: human hepatocytes
Procedure: (§4) A 2.5 uL aliquot of 100 μM test compound was incubated with 247.5 uL of cryopreserved hepatocytes suspended in serum-free incubation medium at 1 million viable cells/mL. The mixture was incubated at 37° C. and shaken at 500 rpm for the designated time points (0.5, 5, 10, 15, 30, 60, 90, or 120 min). At each time point, 25 uL aliquot of incubation mixture was transferred to 125 uL of cold acetonitrile containing internal standard, followed by centrifugation for 30 min at 3,220 g. 100 uL of supernatant was mixed with 100 uL of distilled water for analysis by LC-MS/MS. Peak area ratios were determined from extracted ion chromatograms and percent recovery was calculated.

[1] = Hepatocyte metabolism (stability in cryopreserved hepatocytes); conditions: human hepatocytes
Procedure: as §4

PDE4B2 = PDE4B2 (Homo sapiens (Human), UniProt Q07343); assay: PDE4 inhibition assay (fluorescence polarization), PDE4B2; assay type: biochemical
Procedure: as §1, §2, §3

[2] = human, 1 µM
Procedure: as §4

[3] = beagle, dog, in vivo
Text: (§5) HPLC Instrument: Shimsadzu (DGU-20A5R, Serial No: L20705621435 IX; LC-30AD Serial No: L20555611905 AE and L20555611816 AE; SIL-L30AC, Serial No: L20565605499 AE; Rack Changer II Serial No. L20585601125 SS; CTO20A: Serial No. L20205620413 CD; CBM-20A: Serial No. L20235636200 CD) • MS: AB API 5500 LC/MS/MS instrument (Serial No. EF221221812) • Column: Phenomenex Synergi 2.5 μm Polar-RP 100A. (50×3 mm) • Mobile Phase: (A) 5% Acetonitrile in Water (0.1% Formic acid); (B) 95% Acetonitrile in Water (0.1% Formic acid) • Samples: 50 μL of plasma sample+5 μL of blank solution+200 μL of acetonitrile for PPE (protein precipitation extraction).
(§6) The desired serial concentrations of working solutions were achieved by diluting stock solution of analyte with 50% acetonitrile in water solution. 5 μL of working solutions (5, 10, 20, 50, 100, 500, 1000, 5000, 10000 ng/mL) were added to 50 μL of the blank Beagle Dog plasma to achieve calibration standards of 0.5˜1000 ng/mL (0.5, 1, 2, 5, 10, 50, 100, 500, 1000 ng/mL) in a total volume of 55 μL. Five quality control samples at 1 ng/mL, 2 ng/mL, 5 ng/mL, 50 ng/mL and 800 ng/mL for plasma were prepared independently of those used for the calibration curves. These QC samples were prepared on the day of analysis in the same way as calibration standards.
(§7) 55 μL standards, 55 μL QC samples and 55 μL unknown samples 50 μL plasma with 5 μL blank solution) were added to 200 μL of acetonitrile containing IS mixture for precipitating protein respectively. Then the samples were vortexed for 30 s. After centrifugation at 4 degree Celsius, 3900 rpm for 15 min, the supernatant was diluted 3 times with water.

in vivo = conditions: beagle, dog
Text: as §5, §6, §7

PDE4C1 = PDE4C1 (Homo sapiens (Human), UniProt Q08493); assay: PDE4 inhibition assay (fluorescence polarization), PDE4C1; assay type: biochemical
Procedure: as §1, §2, §3

5-HT transporter (SERT) = 5-HT transporter (SERT) (Homo sapiens (Human), UniProt P31645); conditions: cited from earlier work
[4] = Pharmacokinetic profile in dogs (IV and PO); conditions: dog, mean n=3
Text: as §5, §6, §7

PDE4D2, sequence (Q08499 303-809): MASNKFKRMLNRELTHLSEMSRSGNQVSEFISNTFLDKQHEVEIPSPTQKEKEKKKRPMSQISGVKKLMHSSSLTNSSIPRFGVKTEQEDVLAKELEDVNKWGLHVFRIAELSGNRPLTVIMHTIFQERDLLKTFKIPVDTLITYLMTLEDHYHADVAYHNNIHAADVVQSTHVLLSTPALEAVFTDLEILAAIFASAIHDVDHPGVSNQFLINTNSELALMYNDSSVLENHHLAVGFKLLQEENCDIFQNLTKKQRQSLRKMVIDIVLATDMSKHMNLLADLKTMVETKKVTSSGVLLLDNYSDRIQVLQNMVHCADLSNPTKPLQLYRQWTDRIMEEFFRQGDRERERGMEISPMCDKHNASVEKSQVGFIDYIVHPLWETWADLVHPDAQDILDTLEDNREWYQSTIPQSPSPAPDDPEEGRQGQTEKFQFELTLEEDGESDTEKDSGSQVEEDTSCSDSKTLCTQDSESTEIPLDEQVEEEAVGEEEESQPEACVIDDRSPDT
PDE4C1, sequence (Q08493 whole entry): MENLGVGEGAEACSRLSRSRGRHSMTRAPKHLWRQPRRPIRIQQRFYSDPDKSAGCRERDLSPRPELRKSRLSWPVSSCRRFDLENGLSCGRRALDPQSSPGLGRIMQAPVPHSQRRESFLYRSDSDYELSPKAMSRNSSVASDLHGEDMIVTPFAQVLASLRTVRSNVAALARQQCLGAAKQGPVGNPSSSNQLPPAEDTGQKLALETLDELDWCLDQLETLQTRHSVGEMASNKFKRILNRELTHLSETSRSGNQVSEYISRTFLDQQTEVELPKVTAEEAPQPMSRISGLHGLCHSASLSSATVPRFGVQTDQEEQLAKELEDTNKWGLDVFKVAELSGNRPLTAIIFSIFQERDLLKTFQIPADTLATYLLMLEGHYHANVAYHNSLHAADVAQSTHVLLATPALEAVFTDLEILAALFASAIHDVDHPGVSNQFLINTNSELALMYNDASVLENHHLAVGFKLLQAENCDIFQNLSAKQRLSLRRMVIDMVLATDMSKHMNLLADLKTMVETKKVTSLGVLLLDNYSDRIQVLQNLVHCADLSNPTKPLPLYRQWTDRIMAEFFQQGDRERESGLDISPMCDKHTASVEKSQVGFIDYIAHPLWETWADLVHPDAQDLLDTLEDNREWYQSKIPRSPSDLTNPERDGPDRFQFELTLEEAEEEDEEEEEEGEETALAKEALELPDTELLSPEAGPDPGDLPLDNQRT
PDE4B2, sequence (Q07343 other isoform, or with tags, fused parts or gaps): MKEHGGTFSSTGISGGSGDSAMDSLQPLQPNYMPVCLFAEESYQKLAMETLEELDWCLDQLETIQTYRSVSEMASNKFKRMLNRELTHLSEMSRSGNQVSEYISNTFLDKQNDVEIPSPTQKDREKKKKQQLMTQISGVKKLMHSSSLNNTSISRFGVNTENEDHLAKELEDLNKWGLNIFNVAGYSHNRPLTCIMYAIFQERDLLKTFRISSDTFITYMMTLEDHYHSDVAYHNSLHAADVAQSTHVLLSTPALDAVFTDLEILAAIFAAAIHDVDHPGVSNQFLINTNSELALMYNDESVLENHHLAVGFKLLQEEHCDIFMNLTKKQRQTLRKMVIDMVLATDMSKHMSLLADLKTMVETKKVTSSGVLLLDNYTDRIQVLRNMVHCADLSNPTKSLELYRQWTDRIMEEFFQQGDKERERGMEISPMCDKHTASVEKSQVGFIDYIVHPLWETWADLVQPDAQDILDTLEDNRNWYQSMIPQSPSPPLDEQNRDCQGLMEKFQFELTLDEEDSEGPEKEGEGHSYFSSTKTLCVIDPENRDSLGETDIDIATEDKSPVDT
PDE4A1A, sequence (P27815 other isoform, or with tags, fused parts or gaps): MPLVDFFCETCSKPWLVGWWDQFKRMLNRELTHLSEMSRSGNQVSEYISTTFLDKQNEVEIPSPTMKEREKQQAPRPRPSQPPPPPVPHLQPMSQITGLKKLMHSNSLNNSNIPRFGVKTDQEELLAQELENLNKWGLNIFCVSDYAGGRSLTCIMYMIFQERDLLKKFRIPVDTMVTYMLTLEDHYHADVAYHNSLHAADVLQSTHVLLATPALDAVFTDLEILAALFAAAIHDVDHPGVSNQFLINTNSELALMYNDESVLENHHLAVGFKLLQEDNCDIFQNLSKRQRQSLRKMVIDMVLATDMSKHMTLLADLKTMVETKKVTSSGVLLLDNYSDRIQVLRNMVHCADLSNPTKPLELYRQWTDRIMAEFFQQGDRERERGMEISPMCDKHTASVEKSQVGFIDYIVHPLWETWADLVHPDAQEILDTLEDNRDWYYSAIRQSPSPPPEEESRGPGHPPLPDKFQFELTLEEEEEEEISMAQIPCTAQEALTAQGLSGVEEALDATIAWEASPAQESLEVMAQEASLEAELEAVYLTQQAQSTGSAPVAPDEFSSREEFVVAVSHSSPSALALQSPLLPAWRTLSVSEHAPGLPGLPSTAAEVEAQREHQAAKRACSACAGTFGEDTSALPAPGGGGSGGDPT

COc1ccc([C@@]23CC[C@@H](O)C[C@@H]2N(C)CC3)cc1OC [Compound 018, (3aS,6R,7aS)-3a-(3,4-dimethoxyphenyl)-1-methyloctahydro-1H-indol-6-ol]
PDE4D2 %INH @ 10 μM (PDE4D2; 10 μM): 4%
inhibition at 10 µM (PDE4D2; 10 μM, read-out: PDE4D2 %INH @ 10 μM): ≤ 5%
PDE4A1A % INH @ 10 μM (PDE4A1A; 10 μM): 5%
inhibition at 10 µM (PDE4A1A; 10 μM, read-out: PDE4A1A % INH @ 10 μM): ≤ 5%
behavioral activity (mouse behavior; mice, 3 mg/kg): < 40%
behavioral activity (in words) (mouse behavior; mice, 3 mg/kg): behaviorally inactive
signature in class and subclass (mouse behavior; mice, 10, 30 and 100 mg/kg): robust antidepressant-like signature with a small portion showing psychostimulant-like signature
IC50 (SERT): 21.9 ± 8 nM
CLint scaled at 1 µM (in vitro): 3 mL/min/kg
half-life at 1 µM (in vitro): > 2 h
hepatocyte CLint at 1 µM (in vitro): 1 µL/min/1e6 cells
Extraction Ratio [1]: 0.13
t1/2 [1]: >2 h
PDE4B2 % INH @ 10 μM (PDE4B2): 3%
inhibition at 10 µM (PDE4B2; read-out: PDE4B2 % INH @ 10 μM): ≤ 5%
% QH [2]: 13%
CLHB [2]: 3 mL/min/kg
AUC_% Extrap_obs ([3]; iv, 2 mg/kg): 0.26%
AUClast/D ([3]; iv, 2 mg/kg): 355
Cl_obs ([3]; iv, 2 mg/kg): 47.6 mL/min/kg
AUC_% Extrap_obs ([3]; po, 10 mg/kg): 5.10%
AUClast/D ([3]; po, 10 mg/kg): 14.4
F ([3]; po, 10 mg/kg): 4.3%
AUC(0-inf) (in vivo; iv, 2 mg/kg): 712 ng·h/mL
AUC(0-t) (in vivo; iv, 2 mg/kg): 710 ng·h/mL
C0 (in vivo; iv, 2 mg/kg): 6250 ng/mL
MRT inf (in vivo; iv, 2 mg/kg): 0.71 h
half-life (in vivo; iv, 2 mg/kg): 1.78 h
AUC(0-inf) (in vivo; po, 10 mg/kg): 151 ng·h/mL
AUC(0-t) (in vivo; po, 10 mg/kg): 144 ng·h/mL
Cmax (in vivo; po, 10 mg/kg): 84.4 ng/mL
MRT inf (in vivo; po, 10 mg/kg): 3.95 h
Tmax (in vivo; po, 10 mg/kg): 0.28 h
half-life (in vivo; po, 10 mg/kg): 5.95 h
PDE4C1 % INH @ 10 μM (PDE4C1): 1%
PDE4C1 % INH @ 10 μM (PDE4C1; listed as Compound 18): no more than 5%

COc1ccc(C23C=CC(O)CC2N(C)CC3)cc1OC [Compound 020, (S, R, S) Mesembrenol]
PDE4D2 %INH @ 10 μM (PDE4D2; 10 μM): 72%
PDE4A1A % INH @ 10 μM (PDE4A1A; 10 μM): 68%
PDE4B2 % INH @ 10 μM (PDE4B2): 62%
PDE4C1 % INH @ 10 μM (PDE4C1): 32%

COc1ccc(C23C=CC(O)CC2N(C)CC3)cc1OC [Compound 021, (R, R, S) Mesembrenol]
PDE4D2 %INH @ 10 μM (PDE4D2; 10 μM): 15%
PDE4A1A % INH @ 10 μM (PDE4A1A; 10 μM): 22%
PDE4B2 % INH @ 10 μM (PDE4B2): 12%
PDE4C1 % INH @ 10 μM (PDE4C1): 7%

COc1ccc(C23C=CC(O)CC2N(C)CC3)cc1OC [Compound 023, (R, S, R) Mesembrenol]
PDE4D2 %INH @ 10 μM (PDE4D2; 10 μM): 21%
PDE4A1A % INH @ 10 μM (PDE4A1A; 10 μM): 15%
PDE4B2 % INH @ 10 μM (PDE4B2): 16%
PDE4C1 % INH @ 10 μM (PDE4C1): 9%

COc1ccc(C23C=CC(O)CC2N(C)CC3)cc1OC [Compound 024, (S, S, R) Mesembrenol]
PDE4D2 %INH @ 10 μM (PDE4D2; 10 μM): 53%
PDE4A1A % INH @ 10 μM (PDE4A1A; 10 μM): 45%
PDE4B2 % INH @ 10 μM (PDE4B2): 55%
PDE4C1 % INH @ 10 μM (PDE4C1): 18%

COc1ccc(C23C=CC(O)CC2N(C)CC3)cc1OC (stereo not shown) [Mesembrenol]
Ki (5-HT transporter (SERT); binding to the 5-HT transporter, isolated alkaloids): 62 nM
nH (5-HT transporter (SERT); concentration response curves, 5-HT transporter): 1.1

(+) Mesembrine [Compound 002]
PDE4D2 %INH @ 10 μM (PDE4D2; 10 μM): 54%
PDE4A1A % INH @ 10 μM (PDE4A1A; 10 μM): 56%
PDE4C1 % INH @ 10 μM (PDE4C1): 26%

(−) Mesembrine [Compound 001]
IC50 (PDE4D2): 2700 nM
IC50 (PDE4A1A): 4300 nM
AUCInf ([4]; IV 2 mg/kg): 809 ng·h/mL
AUC_% Extrap_obs ([4]; IV 2 mg/kg): 0.53%
AUClast ([4]; IV 2 mg/kg): 805 ng·h/mL
AUClast/D ([4]; IV 2 mg/kg): 402
C0 ([4]; IV 2 mg/kg): 1226 ng/mL
Cl_obs ([4]; IV 2 mg/kg): 44.07 mL/min/kg
MRTInf_obs ([4]; IV 2 mg/kg): 1.41 h
T1/2 ([4]; IV 2 mg/kg): 1.65 h
AUCInf ([4]; PO 10 mg/kg): 3113.0 ng·h/mL
AUC_% Extrap_obs ([4]; PO 10 mg/kg): 0.25%
AUClast ([4]; PO 10 mg/kg): 3106.9 ng·h/mL
AUClast/D ([4]; PO 10 mg/kg): 310.7
Cmax ([4]; PO 10 mg/kg): 1878.0 ng/mL
F ([4]; PO 10 mg/kg): 76.9%
MRTInf_obs ([4]; PO 10 mg/kg): 1.81 h
T1/2 ([4]; PO 10 mg/kg): 2.99 h
Tmax ([4]; PO 10 mg/kg): 0.28 h
% QH [1]: 86%
CLHB [1]: 18 mL/min/kg
Hepatocyte Clint [1]: 55 μL/min/10^6 cells
t1/2 [1]: 0.217 h
CLint ([1]; scaled): 131 mL/min/kg
IC50 (PDE4C1): 15000 nM
